# Reference: patent publication US20040235884A1, “Preventives/remedies for cholinergic neuropathy” (priority 2001, published 2004)
# Tests used:
# [1] = tested on: high-affinity choline uptake of hippocampal membrane samples; assay: Sustention of action on high-affinity choline uptake: hippocampal membrane samples prepared after single or consecutive administration to AF64A-treated rats; type: in vivo; conditions: for HACU promotion: FIG. 6
# From the text: (§1) Because the compound of the formula (I), particularly 4-acylamino-5,6,7,8-tetrahydrofuro[2,3-b]quinoline derivative, has the above-mentioned mechanism, the promoting action on the high-affinity choline uptake is considered to be dependent on the density of high-affinity choline transporters on the nerve terminal, and therefore, to show a shift independent of the elimination rate of a drug. To clarify this point, the sustained promoting action on the high-affinity choline uptake was examined by monitoring the changes in efficacy when the aforementioned AF64A-treated rats were subjected to single and consecutive administration(s) of a drug. In the test, Compound A at each concentration or a solvent (vehicle) was administered singly or consecutively to AF64A-treated animals and the animals that underwent a sham operation. After a given time, the animals were slaughtered and hippocampal membrane samples (P2 fraction) were prepared by a conventional method. These membrane samples were incubated in Ringer's solution supplemented with [^3H) choline at 37° C. for 10 min. After the completion of the incubation, the membrane samples were filtrated on a glass fiber filter using a cell harvester and washed three times with a buffer. After thorough drying, a scintillator was added and the radioactivity of the membrane samples was measured on a liquid scintillation counter. The non-specific uptake was that in the presence of hemicholinium-3 (10 μM) in a sodium ion free Ringer's solution. To establish the close relationship between the efficacy observed here and an improving action on the dementia symptoms, the improving effect on the water maze-learning disorder observed in the AF64A-treated rats was also studied at a given time after drug administration for 8 consecutive days.
# [2] = tested on: high-affinity choline uptake of hippocampal synaptosome (membrane sample); assay: Effect on high-affinity choline uptake, [3H]choline, hippocampal synaptosome (membrane sample, P2 fraction) of AF64A-treated rats, in vitro incubation; type: biochemical, male Wistar rats; conditions: membrane samples with choline uptake reduced by AF64A treatment; incubation 37° C. 30 min; FIG. 1
# Description: The action of the compound of the formula (I), particularly 4-acylamino-5,6,7,8-tetrahydrofuro[2,3-b]quinoline derivative, on the high-affinity choline uptake was examined using [^3H] choline and hippocampal synaptosome (membrane sample). AF64A (3 μmol), which is a neurotoxin specific to the cholinergic nerve, was administered to male Wistar rats into the cerebral ventricles bilaterally. The rats were subjected to an experiment after a recovery period of about 10 days. Hippocampal membrane samples (P2 fraction) were prepared by a conventional method from these animals and the animals that underwent a sham operation. These membrane samples were incubated in Ringer's solution with Compound A at each concentration or a solvent (vehicle) at 37° C. for 30 min. [^3H] Choline was added to the reaction mixture, and the mixture was incubated for 10 min. After the completion of the incubation, the membrane samples were filtrated on a glass fiber filter using a cell harvester and washed three times with a buffer. After thorough drying, a scintillator was added and the radioactivity of the membrane samples was measured on a liquid scintillation counter. Non-specific uptake was done under ice-cooling.
# AF64A-treated rats = assay: Water maze-learning disorder test in AF64A-treated rats; type: in vivo; conditions: FIG. 7
# From the text: as §1, with “The non-specific uptake was that in the presence of hemicholinium-3 (10 μM) in a sodium ion free Ringer's solution. To establish the close relationship between the efficacy observed here and an improving action on the dementia symptoms, the improving effect on the water maze-learning disorder observed in the AF64A-treated rats was also studied at a given time after drug administration for 8 consecutive days.” left out
# [3] = tested on: high-affinity choline transporter; assay: [3H]hemicholinium-3 binding to hippocampal membrane samples after pre-incubation with drug; Scatchard-plot; design: species or system rats
# Description: The action of the compound of the formula (I), particularly 4-acylamino-5,6,7,8-tetrahydrofuro[2,3-b]quinoline derivative, relative to the density of the high-affinity choline transporter on the nerve terminal was examined using [^3H]hemicholinium-3, which is a specific labeled ligand of a high-affinity choline transporter (SYNAPSE No. 1, pp. 293-303, 1987). The aforementioned AF64A-treated rats were used in this test, too. Hippocampal membrane samples (P2 fraction) were prepared according to a conventional method from the AF64A-treated animals and the sham operation animals. These membrane samples were incubated in Ringer's solution with Compound A at each concentration or a solvent (vehicle) at 37° C. for 30 min. After the completion of the incubation, the drug was removed from the reaction mixture by centrifugation at 4° C. and the membrane samples were washed. The drug-treated membrane samples thus obtained were suspended in a solution containing [^3H] hemicholinium-3, and incubated overnight at 4° C. […] After thorough drying, a scintillator was added and the radioactivity of the membrane samples was measured on a liquid scintillation counter. […] For the analysis of binding mode, Scatchard-plot was used and the maximum binding Bmax and dissociation constant Kd were calculated.
compound,measurement,setting,value
"Cc1oc2nc3c(c(NC(=O)CN4CCCC4=O)c2c1C)CCCC3 [Compound A, 2-(2-oxopyrrolidin-1-yl)-N-(2,3-dimethyl-5,6,7,8-tetrahydrofuro[2,3-b)quinolin-4-yl)acetamide]",HACU promotion,[1]; 24 h after administration for 4 consecutive days,significant HACU promotion was not observed
same,HACU promotion,[1]; 24 h after administration for 16 consecutive days,same level of improving effect as with the administration for 8 consecutive days
same,HACU promoting action,"[1]; administration for 8 consecutive days, 24 h from the final administration, FIG. 5",significant HACU promoting action was observed
same,HACU promoting action,"[1]; administration for 8 consecutive days, 48 h later, FIG. 5",sustained
same,HACU promoting action,"[1]; administration for 8 consecutive days, 72 h, FIG. 5",disappeared
same,HACU promoting action,"[1]; single administration, 1 h after administration, FIG. 4",significant promotion of HACU
same,HACU promoting action,"[1]; single administration, 3 h after administration, FIG. 4",significant promotion of HACU
same,HACU promoting action,"[1]; single administration, 24 h later, FIG. 4",attenuated
same,choline uptake of hippocampal membrane samples,[2],significantly improved
same,improving effect on learning disorder (water maze),AF64A-treated rats; 24 h after the administration for 8 consecutive days,significant improving effect on learning disorder
same,improving effect on learning disorder (water maze),AF64A-treated rats; 48 h after the administration for 8 consecutive days,significant improving effect on learning disorder
same,action on maximum binding Bmax of hemicholinium-3 (transporter number on membrane surface),"[3]; Scatchard-plot analysis, FIG. 3",increasing action on the maximum binding Bmax
same,binding of [3H]hemicholinium-3 on the hippocampal membrane sample,"[3]; incubation in advance with drug, 37° C. 30 min, FIG. 2",increased dose-dependently
